According to ChEMBL document CHEMBL1201862, “PubChem BioAssay data set” (2004):
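Where inhibition never reached the appropriate level, the endpoint shown equals the highest concentration tested. Otherwise, values were interpolated linearly from a five-concentration, 48-hour dose response in 96-well plates. At the GI50, growth is halved.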 Calls of active or inactive are those of the source. Rule as the data show it: active = GI50 up to about 1.1 µM and inactive = higher.

What was measured:
Test in all cases: NCI tumour cell line growth inhibition, 48 h
[1] = system: ACHN
[2] = system: CAKI-1
[3] = system: EKVX
[4] = system: HCC 2998
[5] = system: HCT-116
[6] = system: HCT-15
[7] = system: HL-60
[8] = system: HOP-62
[9] = system: MOLT-4
[10] = system: NCI-H226
[11] = system: NCI-H522
[12] = system: RXF 393
[13] = system: SF-268
[14] = system: SK-MEL-5
[15] = system: SK-OV-3
[16] = system: SR
[17] = system: UACC-257
[18] = system: Hs-578T
[19] = system: MCF7

SMILES	GI50 [1]	GI50 [2]	GI50 [3]	GI50 [4]	GI50 [5]	GI50 [6]	GI50 [7]	GI50 [8]	GI50 [9]	GI50 [10]	GI50 [11]	GI50 [12]	GI50 [13]	GI50 [14]	GI50 [15]	GI50 [16]	GI50 [17]	GI50 [18]	GI50 [19]
Cc1ccc(C(=O)O/N=C2/CCC/C2=C\c2ccccc2)cc1	> 100 µM (inactive)	> 100 µM (inactive)	> 100 µM (inactive)	> 100 µM (inactive)	> 100 µM (inactive)	> 100 µM	> 100 µM (inactive)	> 100 µM (inactive)	> 100 µM (inactive)	> 100 µM (inactive)	> 100 µM (inactive)	> 100 µM (inactive)	29.1 µM (inactive)	> 100 µM (inactive)	> 100 µM (inactive)	> 100 µM (inactive)	> 100 µM (inactive)		
CC(c1ccc(Br)cc1)C(C(=O)O)C(=O)O (stereo not drawn)	> 100 µM (inactive)	> 100 µM (inactive)	> 100 µM (inactive)	> 100 µM (inactive)	> 100 µM (inactive)	> 100 µM	> 100 µM (inactive)	> 100 µM (inactive)	> 100 µM (inactive)	> 100 µM (inactive)	> 100 µM (inactive)	> 100 µM (inactive)	> 100 µM (inactive)	> 100 µM (inactive)	> 100 µM (inactive)	> 100 µM (inactive)	> 100 µM (inactive)		
CC1=NN(c2ccccc2)C(=O)/C1=C/c1ccc(O)cc1	> 100 µM (inactive)	> 100 µM (inactive)	> 100 µM (inactive)	> 100 µM (inactive)	> 100 µM (inactive)	> 100 µM	> 100 µM (inactive)		> 100 µM (inactive)	> 100 µM (inactive)		> 100 µM (inactive)	> 100 µM (inactive)	> 100 µM (inactive)	> 100 µM (inactive)	84.3 µM (inactive)	> 100 µM (inactive)	> 100 µM (inactive)	> 100 µM (inactive)
CCCCCCCC(=O)OC(CBr)COC(=O)C(C)(C)C (stereo not drawn)	> 100 µM (inactive)	> 100 µM (inactive)	> 100 µM (inactive)	> 100 µM (inactive)	> 63.4 µM (inactive)	> 100 µM	38 µM (inactive)	> 100 µM (inactive)	28.9 µM (inactive)	> 100 µM (inactive)	> 100 µM (inactive)	> 100 µM (inactive)	> 100 µM (inactive)	> 100 µM (inactive)	> 100 µM (inactive)	22.1 µM (inactive)	> 100 µM (inactive)		
CS/C(N)=N/c1cccc2ccccc12	> 10 µM (inactive)	> 10 µM (inactive)	> 10 µM (inactive)	> 10 µM (inactive)	> 10 µM (inactive)	> 10 µM	> 10 µM (inactive)	> 10 µM (inactive)	> 10 µM (inactive)	> 10 µM (inactive)	> 10 µM (inactive)	> 10 µM (inactive)	> 10 µM (inactive)	> 10 µM (inactive)	> 10 µM (inactive)	> 10 µM (inactive)	> 10 µM (inactive)		> 10 µM (inactive)
COc1ccc(C(=O)c2nc3ccccc3nc2N2CCN(c3ccccc3)CC2)cc1OC	> 100 µM (inactive)	> 100 µM (inactive)	> 100 µM (inactive)	> 100 µM (inactive)	> 100 µM (inactive)	> 100 µM	> 100 µM (inactive)	> 100 µM (inactive)	> 100 µM (inactive)		> 100 µM (inactive)	> 100 µM (inactive)	> 100 µM (inactive)	> 100 µM (inactive)	> 100 µM (inactive)	> 100 µM (inactive)	> 100 µM (inactive)	> 100 µM (inactive)	39.1 µM (inactive)
N#C/C(=C\n1ccc(=O)[nH]c1=S)C(N)=O	> 100 µM (inactive)	> 100 µM (inactive)	> 100 µM (inactive)	> 100 µM (inactive)	> 100 µM (inactive)	> 100 µM	> 100 µM (inactive)	> 100 µM (inactive)	> 100 µM (inactive)	> 100 µM (inactive)	> 100 µM (inactive)	> 100 µM (inactive)	> 100 µM (inactive)	> 100 µM (inactive)	> 100 µM (inactive)	> 100 µM (inactive)	> 100 µM (inactive)	> 100 µM (inactive)	> 100 µM (inactive)
N#C/C(=C\c1cccc(Br)c1)c1nc2ccccc2c(=O)[nH]1	54.7 µM (inactive)	> 100 µM (inactive)	> 100 µM (inactive)	> 100 µM (inactive)	> 100 µM (inactive)	> 100 µM	> 100 µM (inactive)	21.9 µM (inactive)	> 100 µM (inactive)	> 100 µM (inactive)	37.9 µM (inactive)	> 100 µM (inactive)	> 100 µM (inactive)	> 100 µM (inactive)	> 100 µM (inactive)	92.9 µM (inactive)	> 100 µM (inactive)		> 100 µM (inactive)
O=C(CSCC(=O)N/N=C\c1ccccc1F)N/N=C\c1ccccc1F	> 100 µM (inactive)	> 100 µM (inactive)	> 100 µM (inactive)	38.5 µM (inactive)	> 100 µM (inactive)	63.2 µM	> 100 µM (inactive)		63.2 µM (inactive)	87.5 µM (inactive)	64.6 µM (inactive)	> 100 µM (inactive)	> 100 µM (inactive)	64.1 µM (inactive)	> 100 µM (inactive)		> 100 µM (inactive)	> 100 µM (inactive)	> 100 µM (inactive)
O=C1C=C(Br)C(=O)C(Br)=C1	> 85.5 µM (inactive)	> 100 µM (inactive)	> 100 µM (inactive)	74 µM (inactive)	> 84.9 µM (inactive)	> 79.8 µM	20.3 µM (inactive)	> 100 µM (inactive)	33.7 µM (inactive)	> 100 µM (inactive)	67.5 µM (inactive)	> 100 µM (inactive)	> 100 µM (inactive)	> 100 µM (inactive)	> 100 µM (inactive)	31.8 µM (inactive)	> 100 µM (inactive)		
CCOC(=O)c1[nH]c(COC(C)=O)c2c1CCCCCCCCCC2		> 100 µM (inactive)	> 100 µM (inactive)	> 100 µM (inactive)	> 100 µM (inactive)	> 100 µM	> 100 µM (inactive)	> 100 µM (inactive)	> 100 µM (inactive)	> 100 µM (inactive)	> 100 µM (inactive)	> 100 µM (inactive)	> 100 µM (inactive)	> 100 µM (inactive)	> 100 µM (inactive)	> 100 µM (inactive)	> 100 µM (inactive)		
COC1CC(n2ccc(=O)[nH]c2=O)OC1CO (stereo not drawn)	> 100 µM (inactive)	> 100 µM (inactive)	> 100 µM (inactive)	> 100 µM (inactive)	> 100 µM (inactive)	> 100 µM		> 100 µM (inactive)	> 100 µM (inactive)	> 100 µM (inactive)	> 100 µM (inactive)	> 100 µM (inactive)	> 100 µM (inactive)	> 100 µM (inactive)	> 100 µM (inactive)	> 100 µM (inactive)	> 100 µM (inactive)		< 0.01 µM (active)
